Biological target: T1, SHP2 protein (Homo sapiens, UniProt Q06124)
T1 sequence (Q06124 1-593): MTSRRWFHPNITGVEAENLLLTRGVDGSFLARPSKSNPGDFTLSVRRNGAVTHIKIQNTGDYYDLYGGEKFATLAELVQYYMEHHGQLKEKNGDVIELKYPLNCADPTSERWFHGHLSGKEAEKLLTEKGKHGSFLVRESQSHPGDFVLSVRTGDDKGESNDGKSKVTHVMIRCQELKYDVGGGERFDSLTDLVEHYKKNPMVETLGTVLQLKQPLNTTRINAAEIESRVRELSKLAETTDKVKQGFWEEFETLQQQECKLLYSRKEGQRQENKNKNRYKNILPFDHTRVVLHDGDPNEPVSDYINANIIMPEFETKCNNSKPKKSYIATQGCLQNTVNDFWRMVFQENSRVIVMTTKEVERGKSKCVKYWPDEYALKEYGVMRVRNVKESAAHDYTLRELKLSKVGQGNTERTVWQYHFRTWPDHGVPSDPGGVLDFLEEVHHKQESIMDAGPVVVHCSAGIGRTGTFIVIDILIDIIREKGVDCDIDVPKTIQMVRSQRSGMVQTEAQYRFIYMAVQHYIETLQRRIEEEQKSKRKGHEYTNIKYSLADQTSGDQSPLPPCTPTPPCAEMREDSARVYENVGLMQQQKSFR
Assay: Degradation activity on SHP2 protein in MIA Paca-2 cells (Western blot, DC50)
Type: cell-based
Design: endogenous in cells; host or cells: MIA Paca-2 cells
Details: read-out: Degradation activity for differenct cell lines MIA Paca-2 (DC50)
Description: (1) MV-411 cells were cultured in the cell culture medium, and then well-growing cells were selected and inoculated in a 12-well plate, with 1 mL/well and 1×10^6 cells/well. The plate was incubated overnight in a 5% CO2 cell incubator at 37° C.
(2) 10 mM storage solution of each drug was prepared using dimethylsulfoxide (DMSO). The stock solution was diluted gradually with DMSO before use, and then 1 μL of the compound solution was added to the cell culture well (to ensure that the DMSO concentration in the culture system was […]), so that the final drug concentration is 100 nM, 10 nM, 3 nM, 1 nM, 0.3 nM, and 0.1 nM. Two wells were set for each concentration. The plate was gently shaken and mixed. Additionally, negative control wells (containing an equal amount of DMSO) and positive control wells were included.
(3) After 24 hours of cultivation, the cells were lysed using RIPA cell lysate, and the proteins were extracted. The protein concentration was measured using a BCA assay kit. 5× concentrated protein buffer was loaded, heated at 100° C. for 5 min, and then the sample was stored at −20° C.
(4) For each well, 30 μg of protein was loaded to polyacrylamide gel for electrophoresis.
(5) The protein was transferred from polyacrylamide gel to PVDF membrane, and sealed at room temperature with 5% skimmed milk for 1 h, which was then incubated with the primary antibodies (Anti-SHP2 rabbit mAb and Anti-GAPDH rabbit mAb) at 4° C. overnight. The membrane was washed three times with TBST solution, 10 minutes for each time. After that, the membrane was incubated with the secondary antibodies (horseradish peroxidase labeled goat anti-rabbit IgG) at room temperature for 2 h, and then washed three times with TBST solution, 10 minutes for each time, followed by exposure.
(6) The images were analyzed with Image J grayscale, and the degradation ratio of protein bands in the test group was calculated, based on the negative control group (DMSO) (100%).
(7) Using the Dose-response-inhibition equation in the data processing software GraphPad Prism 8, the DC50 value was obtained (which represents the drug concentration corresponding to 50% degradation of the target protein).
Using similar methods and different cell lines, the degradation activity of the compound according to the present invention on SHP2 protein of different cell lines was tested under suitable culture conditions.

| DC50 [nM] | Structure (SMILES) |
| --- | --- |
| < 100 | CC1(N)CCN(c2cnc(Sc3cccc(NC(=O)C4CCC(N5CCC(N6CC=C(c7ccc(C(=O)NCc8ccc9c(c8)CN(C8CCC(=O)NC8=O)C9=O)nn7)CC6)CC5)CC4)c3)cn2)CC1 (centres unmarked) [Compound 339] |
| > 1000 | C[C@@H]1OCC2(CCN(c3cnc(Sc4cccc(NC(=O)CCN5CCN(c6ccc(C(=O)NCc7ccc8c(c7)CN(C7CCC(=O)NC7=O)C8=O)nn6)CC5)c4)cn3)CC2)[C@@H]1N (some centres unmarked) [Compound 289] |
| < 100 | C[C@@H]1OCC2(CCN(c3cnc(Sc4cccc(NC(=O)c5ccc(N6CCC(N7CC=C(c8ccc(C(=O)NCc9ccc%10c(c9)CN(C9CCC(=O)NC9=O)C%10=O)nc8)CC7)CC6)cc5)c4)cn3)CC2)[C@@H]1N (some centres unmarked) [Compound 411] |
| < 100 | Cc1cc(C(=O)Nc2cccc(Sc3cnc(N4CCC(C)(N)CC4)cn3)c2)cc(C)c1N1CCC(N2CC=C(c3ccc(C(=O)NCc4ccc5c(c4)CN(C4CCC(=O)NC4=O)C5=O)nc3)CC2)CC1 (centres unmarked) [Compound 486] |
| > 1000 | CC1(N)CCN(c2cnc(Sc3cccc(NC(=O)C4CC45CCC(N4CC=C(c6ccc(C(=O)NCc7ccc8c(c7)CN(C7CCC(=O)NC7=O)C8=O)nc6)CC4)CC5)c3)cn2)CC1 (single isomer, unassigned) [Compound 314] |
| < 100 | C[C@@H]1OCC2(CCN(c3cnc(Sc4cccc(NC(=O)c5ccc(N6CCC(N7CC=C(c8cnc(C(=O)NCc9ccc%10c(c9)CN(C9CCC(=O)NC9=O)C%10=O)c(F)c8)CC7)CC6)c(F)c5)c4)cn3)CC2)[C@@H]1N (some centres unmarked) [Compound 464] |
| < 100 | CC1(N)CCN(c2cnc(Sc3cccc(NC(=O)c4cnc(N5CCC(N6CCN(c7ccc(C(=O)NCc8ccc9c(c8)CN(C8CCC(=O)NC8=O)C9=O)nn7)CC6)CC5)cn4)c3)cn2)CC1 (centres unmarked) [Compound 509] |
| > 1000 | COCC1(N)CCN(c2cnc(Sc3cccc(NC(=O)c4ccc(N5CCC(N6CC=C(c7ccc(C(=O)NCc8ccc9c(c8)CN(C8CCC(=O)NC8=O)C9=O)nn7)CC6)CC5)cc4)c3)cn2)CC1 (centres unmarked) [Compound 433] |
| < 100 | CC1(N)CCN(c2cnc(Sc3cccc(NC(=O)c4ccc(N5CCC(N6CC=C(c7ccc(C(=O)NCc8ccc9c(c8)CN(C8CCC(=O)NC8=O)C9=O)nn7)CC6)CC5)c(F)c4)c3)cn2)CC1 (centres unmarked) [Compound 329] |
| > 1000 | CC1(N)CCN(c2cnc(Sc3cccc(NC(=O)C4CC45CCC(N4CC=C(c6ccc(C(=O)NCc7ccc8c(c7)CN(C7CCC(=O)NC7=O)C8=O)nn6)CC4)CC5)c3)cn2)CC1 (single isomer, unassigned) [Compound 319] |
| > 1000 | CC(=O)NC1(C)CCN(c2cnc(Sc3cccc(NC(=O)c4ccc(N5CCC(N6CC=C(c7ccc(C(=O)NCc8ccc9c(c8)CN(C8CCC(=O)NC8=O)C9=O)nc7)CC6)CC5)c(F)c4)c3)cn2)CC1 (centres unmarked) [Compound 425] |
| > 1000 | CC1(N)CCN(c2cnc(Sc3cccc(NC(=O)c4ccc(C5=CCC(N6CC=C(c7ccc(C(=O)NCc8ccc9c(c8)CN(C8CCC(=O)NC8=O)C9=O)nc7)CC6)CC5)nc4)c3)cn2)CC1 (centres unmarked) [Compound 432] |
| > 1000 | C[C@@H]1OCC2(CCN(c3cnc(Sc4cccc(NC(=O)C5CCC(N6CCN(c7ccc(C(=O)NCc8ccc9c(c8)CN(C8CCC(=O)NC8=O)C9=O)nn7)CC6)CC5)c4)cn3)CC2)[C@@H]1N (some centres unmarked) [Compound 476] |
| > 1000 | CC1(N)CCN(c2cnc(Sc3cccc(NC(=O)CCCCCOc4ccc(-c5ccc(C(=O)NCc6ccc7c(c6)CN(C6CCC(=O)NC6=O)C7=O)nc5)cc4)c3)cn2)CC1 (centres unmarked) [Compound 213] |
| < 100 | CC1(N)CCN(c2cnc(Sc3cccc(NC(=O)c4ccc(C5=CCC(N6CC=C(c7ccc(C(=O)N8CCN(c9ccc%10c(c9)CN(C9CCC(=O)NC9=O)C%10=O)CC8)nc7)CC6)CC5)cc4)c3)cn2)CC1 (centres unmarked) [Compound 308] |
| 100 to 1000 | Cc1cc(N2CCC(N3CC=C(c4ccc(C(=O)NCc5ccc6c(c5)CN(C5CCC(=O)NC5=O)C6=O)cc4)CC3)CC2)ccc1C(=O)Nc1cccc(Sc2cnc(N3CCC(C)(N)CC3)cn2)c1 (centres unmarked) [Compound 454] |

| DC50 [nM] | Structure (SMILES) |
| --- | --- |
| > 1000 | CC1(N)CCN(c2cnc(Sc3cccc(NC(=O)CCCCCCN4CCC5(CC4)CC(=O)N(CC(=O)NCc4ccc6c(c4)CN(C4CCC(=O)NC4=O)C6=O)C5)c3)cn2)CC1 (centres unmarked) [Compound 215] |
| > 1000 | C[C@H](N)C(=O)N[C@@H](Cc1ccccc1)C(=O)NC1(C)CCN(c2cnc(Sc3cccc(NC(=O)c4ccc(N5CCC(N6CC=C(c7ccc(C(=O)NCc8ccc9c(c8)CN(C8CCC(=O)NC8=O)C9=O)nc7)CC6)CC5)cc4)c3)cn2)CC1 (some centres unmarked) [Compound 427] |
| 100 to 1000 | C[C@@H]1OCC2(CCN(c3cnc(Sc4cccc(NCc5ccc(N6CCC(N7CC=C(c8ccc(C(=O)NCc9ccc%10c(c9)CN(C9CCC(=O)NC9=O)C%10=O)nc8Cl)CC7)CC6)c(F)c5)c4)cn3)CC2)[C@@H]1N (some centres unmarked) [Compound 518] |
| > 1000 | CC1(N)CCN(c2cnc(Sc3cccc(NC(=O)C4CC45CCC(N4CC=C(c6ccc(C(=O)NCc7ccc8c(c7)CN(C7CCC(=O)NC7=O)C8=O)nn6)CC4)CC5)c3)cn2)CC1 (single isomer, unassigned) [Compound 318] |
| > 1000 | CC1(N)CCN(c2cnc(Sc3cccc(NC(=O)C4CC5(C4)CC(N4CC=C(c6ccc(C(=O)NCc7ccc8c(c7)CN(C7CCC(=O)NC7=O)C8=O)nn6)CC4)C5)c3)cn2)CC1 (centres unmarked) [Compound 311] |
| < 100 | C[C@@H]1OCC2(CCN(c3cnc(Sc4cccc(NC(=O)c5ccc(N6CCC(N7CC=C(c8cnc(C(=O)NCc9ccc%10c(c9)CN(C9CCC(=O)NC9=O)C%10=O)cc8Cl)CC7)CC6)c(F)c5)c4)cn3)CC2)[C@@H]1N (some centres unmarked) [Compound 460] |
| > 1000 | CC1(N)CCN(c2cnc(Sc3cccc(NC(=O)C4CC(N5CC=C(c6ccc(C(=O)NCc7ccc8c(c7)C(=O)N(C7CCC(=O)NC7=O)C8)nc6)CC5)C4)c3)cn2)CC1 (centres unmarked) [Compound 302] |
| < 100 | CC1(N)CCN(c2cnc(Sc3cccc(NC(=O)c4ccc(N5CCC(N6CCN(c7cnc(C(=O)NCc8ccc9c(c8)CN(C8CCC(=O)NC8=O)C9=O)cc7Cl)CC6)CC5)cc4)c3)cn2)CC1 (centres unmarked) [Compound 508] |
| 100 to 1000 | C[C@@H]1OCC2(CCN(c3cnc(Sc4cccc(NC(=O)c5ccc(CN6CC7(CCN(c8ccc(C(=O)NCc9ccc%10c(c9)CN(C9CCC(=O)NC9=O)C%10=O)cn8)C7)C6)cc5)c4)cn3)CC2)[C@@H]1N (some centres unmarked) [Compound 490] |
| > 1000 | CC1(N)CCN(c2cnc(Sc3cccc(NC(=O)C4CCC(N5CCN(c6ccc7c(c6)CN(C6CCC(=O)NC6=O)C7=O)CC5)CC4)c3)cn2)CC1 (centres unmarked) [Compound 271] |
| > 1000 | C[C@@H]1OCC2(CCN(c3cnc(Sc4cccc(NC(=O)c5ccc(N6CCC(N7CC=C(c8ccc(C(=O)NCc9ccc%10c(c9)CN(C9CCC(=O)NC9=O)C%10=O)nc8Cl)CC7)CC6)c(F)c5)c4)cn3)CC2)[C@@H]1N (some centres unmarked) [Compound 463] |
| > 1000 | CC1(N)CCN(c2cnc(Sc3cccc(NC(=O)c4ccc(-c5ccc(N6CCC(C7=CCC(C(=O)NCc8ccc9c(c8)CN(C8CCC(=O)NC8=O)C9=O)CC7)CC6)cc5)cc4)c3)cn2)CC1 (centres unmarked) [Compound 423] |
| < 100 | CC1(N)CCN(c2cnc(Sc3cccc(NC(=O)c4ccc(N5CCC(N6CC=C(c7ccc(C(=O)NCc8ccc9c(c8)CN(C8CCC(=O)NC8=O)C9=O)nc7)C(C)(C)C6)CC5)cc4)c3)cn2)CC1 (centres unmarked) [Compound 303] |
| < 100 | CC1(N)CCN(c2cnc(Sc3cccc(NC(=O)C4CC45CCC(N4CC=C(c6ccc(C(=O)Nc7ccc8c(c7)CN(C7CCC(=O)NC7=O)C8=O)nn6)CC4)CC5)c3)cn2)CC1 (single isomer, unassigned) [Compound 321] |
| < 100 | C[C@@H]1OCC2(CCN(c3cnc(Sc4cccc(NC(=O)c5ccc(N6CCC(N7CCN(c8ccc(C(=O)NCc9ccc%10c(c9)CN(C9CCC(=O)NC9=O)C%10=O)cc8F)CC7)CC6)c(F)c5)c4)cn3)CC2)[C@@H]1N (some centres unmarked) [Compound 515] |
| < 100 | CC1(N)CCN(c2cnc(Sc3cccc(NC(=O)c4ccc(N5CCC(N6CC=C(c7ccc(C(=O)NCc8ccc9c(c8)CN(C8CCC(=O)NC8=O)C9=O)nc7)CC6)CC5)nc4)c3)cn2)CC1 (centres unmarked) [Compound 324] |
